Key:
WcbI [1] = molecular target: T1, WcbI (Burkholderia pseudomallei, UniProt Q63R74); conditions: absolute Tm at 1 mM ligand (no ligand 37.4 ± 0.4 °C); 10 mM HEPES pH 7.0, 150 mM NaCl
WcbI [2] = molecular target: T1, WcbI; conditions: covalent (disulfide to Cys14); co-crystallized with 200 µM acetyl-CoA; native structure 4BQO (1.56 Å) holds non-covalent CoA carried from E. coli
WcbI [3] = molecular target: T1, WcbI; test: biochemical

T1 sequence (Q63R74 1-312 limits assumed): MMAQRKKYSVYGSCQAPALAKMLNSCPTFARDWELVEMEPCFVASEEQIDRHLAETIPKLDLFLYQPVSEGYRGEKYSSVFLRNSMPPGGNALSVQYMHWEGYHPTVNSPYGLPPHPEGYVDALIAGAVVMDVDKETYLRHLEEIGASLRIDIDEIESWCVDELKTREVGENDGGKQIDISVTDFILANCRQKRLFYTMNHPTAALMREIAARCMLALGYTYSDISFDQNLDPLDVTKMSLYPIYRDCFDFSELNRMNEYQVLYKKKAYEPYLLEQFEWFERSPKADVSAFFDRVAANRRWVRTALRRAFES

Compound: CC(=O)SCCNC(=O)CCNC(=O)[C@H](O)C(C)(C)COP(=O)(O)OP(=O)(O)OC[C@H]1O[C@@H](n2cnc3c(N)ncnc32)[C@H](O)[C@@H]1OP(=O)(O)O [acetyl-CoA]
- T m ± SD ^† (°C) (WcbI [1]): 45.6 ± 0.5 °C

Compound: CC(C)(COP(=O)(O)OP(=O)(O)OC[C@H]1O[C@@H](n2cnc3c(N)ncnc32)[C@H](O)[C@@H]1OP(=O)(O)O)[C@@H](O)C(=O)NCCC(=O)NCCS [coenzyme A]
- X-ray crystal structure, 1.38 Å (WcbI [2]): 4bqn for WcbI covalently bound to coenzyme A and 4bqo for the native structure
- T m ± SD ^† (°C) (WcbI [1]): 46.2 ± 0.2 °C
- Kd (WcbI [3]): 58 ± 2 µM

From paper PMC4104973 (IUCrJ, 2013)
